According to ChEMBL document CHEMBL3351662, “Synthesis, bioassay, and QSAR study of bronchodilatory active 4H-pyrano[3,2-c]pyridine-3-carbonitriles” (Eur J Med Chem, 2015):

Test: Bronchodialatory activity in guinea pig trachea assessed as reduction of histamine-induced contracture
Assay type: functional, tissue-based, Cavia porcellus

IC50 [µM] | Structure (SMILES)
23.4 | CCN1CC[C@@]2(OC)OC(N)=C(C#N)[C@@H](c3ccccc3)[C@@H]2C1
10.5 | CO[C@@]12CCN(C)C[C@H]1[C@H](c1ccc(Cl)cc1)C(C#N)=C(N)O2
14.9 | CCN1CC[C@@]2(OC)OC(N)=C(C#N)[C@@H](c3ccc(Cl)cc3)[C@@H]2C1
19.4 | CO[C@@]12CCN(C)C[C@H]1[C@H](c1ccc(F)cc1)C(C#N)=C(N)O2
13.2 | CO[C@@]12CCN(C)C[C@H]1[C@H](c1ccc(C)cc1)C(C#N)=C(N)O2
23.1 | COc1ccc([C@@H]2C(C#N)=C(N)O[C@]3(OC)CCN(C)C[C@@H]23)cc1
25.5 | CCN1CC[C@@]2(OC)OC(N)=C(C#N)[C@@H](c3ccc(OC)cc3)[C@@H]2C1
19 | CO[C@@]12CCN(C)C[C@H]1[C@H](c1ccc(N3CCCCC3)cc1)C(C#N)=C(N)O2
13.8 | CCN1CC[C@@]2(OC)OC(N)=C(C#N)[C@@H](c3ccc(N4CCCCC4)cc3)[C@@H]2C1
20.2 | CO[C@@]12CCN(C)C[C@H]1[C@H](c1ccc(N3CCOCC3)cc1)C(C#N)=C(N)O2
28.7 | CCN1CC[C@@]2(OC)OC(N)=C(C#N)[C@@H](c3ccc(N4CCOCC4)cc3)[C@@H]2C1
19.8 | CO[C@@]12CCN(C)C[C@H]1[C@H](c1ccccc1)C(C#N)=C(N)O2
20.7 | CCCN1CC[C@@]2(OC)OC(N)=C(C#N)[C@@H](c3ccccc3)[C@@H]2C1
22.6 | CO[C@@]12CCN(Cc3ccccc3)C[C@H]1[C@H](c1ccccc1)C(C#N)=C(N)O2
24.2 | CO[C@@]12CCN(C)C[C@H]1[C@H](c1ccc3ccccc3c1)C(C#N)=C(N)O2
28.3 | CCN1CC[C@@]2(OC)OC(N)=C(C#N)[C@@H](c3ccc4ccccc4c3)[C@@H]2C1
37.1 | CCCN1CC[C@@]2(OC)OC(N)=C(C#N)[C@@H](c3ccc4ccccc4c3)[C@@H]2C1
23.4 | CO[C@@]12CCN(Cc3ccccc3)C[C@H]1[C@H](c1ccc3ccccc3c1)C(C#N)=C(N)O2
7.9 | CO[C@@]12CCN(C)C[C@H]1[C@H](c1ccc(Br)cc1)C(C#N)=C(N)O2
13.2 | CCN1CC[C@@]2(OC)OC(N)=C(C#N)[C@@H](c3ccc(Br)cc3)[C@@H]2C1
19.4 | CCCN1CC[C@@]2(OC)OC(N)=C(C#N)[C@@H](c3ccc(Br)cc3)[C@@H]2C1

IC50 [µM] | Structure (SMILES)
30.3 | CCCN1CC[C@@]2(OC)OC(N)=C(C#N)[C@@H](c3ccc(Cl)cc3)[C@@H]2C1
18.5 | CO[C@@]12CCN(Cc3ccccc3)C[C@H]1[C@H](c1ccc(Cl)cc1)C(C#N)=C(N)O2
14.9 | CO[C@@]12CCN(C)C[C@H]1[C@H](c1ccc(Cl)cc1Cl)C(C#N)=C(N)O2
27.1 | CCN1CC[C@@]2(OC)OC(N)=C(C#N)[C@@H](c3ccc(Cl)cc3Cl)[C@@H]2C1
35.5 | CCCN1CC[C@@]2(OC)OC(N)=C(C#N)[C@@H](c3ccc(Cl)cc3Cl)[C@@H]2C1
18.3 | CO[C@@]12CCN(Cc3ccccc3)C[C@H]1[C@H](c1ccc(Cl)cc1Cl)C(C#N)=C(N)O2
29.6 | CCCN1CC[C@@]2(OC)OC(N)=C(C#N)[C@@H](c3ccc(F)cc3)[C@@H]2C1
17.2 | CO[C@@]12CCN(Cc3ccccc3)C[C@H]1[C@H](c1ccc(F)cc1)C(C#N)=C(N)O2
16.8 | CCN1CC[C@@]2(OC)OC(N)=C(C#N)[C@@H](c3ccc(C)cc3)[C@@H]2C1
21 | CCCN1CC[C@@]2(OC)OC(N)=C(C#N)[C@@H](c3ccc(C)cc3)[C@@H]2C1
27.1 | CO[C@@]12CCN(Cc3ccccc3)C[C@H]1[C@H](c1ccc(C)cc1)C(C#N)=C(N)O2
21.3 | CCCN1CC[C@@]2(OC)OC(N)=C(C#N)[C@@H](c3ccc(OC)cc3)[C@@H]2C1
23.1 | COc1ccc([C@@H]2C(C#N)=C(N)O[C@]3(OC)CCN(Cc4ccccc4)C[C@@H]23)cc1
19.1 | COc1ccc([C@@H]2C(C#N)=C(N)O[C@]3(OC)CCN(C)C[C@@H]23)cc1OC
23.2 | CCN1CC[C@@]2(OC)OC(N)=C(C#N)[C@@H](c3ccc(OC)c(OC)c3)[C@@H]2C1
24.7 | CCCN1CC[C@@]2(OC)OC(N)=C(C#N)[C@@H](c3ccc(OC)c(OC)c3)[C@@H]2C1
21.9 | COc1ccc([C@@H]2C(C#N)=C(N)O[C@]3(OC)CCN(Cc4ccccc4)C[C@@H]23)cc1OC
25.4 | CO[C@@]12CCN(Cc3ccccc3)C[C@H]1[C@H](c1ccc(N3CCOCC3)cc1)C(C#N)=C(N)O2
13.8 | CO[C@@]12CCN(C)C[C@H]1[C@H](c1ccc(-c3cccs3)cc1)C(C#N)=C(N)O2
19.8 | CCN1CC[C@@]2(OC)OC(N)=C(C#N)[C@@H](c3ccc(-c4cccs4)cc3)[C@@H]2C1

Structure (SMILES) | IC50 [µM]
Cn1c(=O)c2nc[nH]c2n(C)c1=O [THEOPHYLLINE] | 19.9
